Results reported in ChEMBL document CHEMBL3046052, “New thiazolidinedione-5-acetic acid amide derivatives: synthesis, characterization and investigation of antimicrobial and cytotoxic properties” (Med Chem Res, 2012).
In brackets after ≈: the same amount, converted by molar mass.

Legend:
HeLa = assay: Cytotoxicity against Homo sapiens (human) HeLa cells after 24 hr by MTT assay; type: functional, cell-based
Staphylococcus aureus = assay: Antibacterial activity against Staphylococcus aureus ATCC 25923 after 24 hr by NCCLS two fold serial dilution method; type: functional; settings: ATCC 25923, 24 h
A549 = assay: Cytotoxicity against Homo sapiens (human) A549 cells after 24 hr by MTT assay; type: functional, cell-based; settings: A549, 24 h
Aspergillus niger = assay: Antifungal activity against Aspergillus niger ATCC 6275 after 48 hr by NCCLS two-fold serial dilution method; type: functional; settings: ATCC 6275, 48 h
Enterococcus faecalis = assay: Antibacterial activity against Enterococcus faecalis ATCC 35550 after 24 hr by NCCLS two-fold serial dilution method; type: functional; settings: ATCC 35550, 24 h
Escherichia coli = assay: Antibacterial activity against Escherichia coli ATCC 35218 after 24 hr by NCCLS two-fold serial dilution method; type: functional; settings: ATCC 35218, 24 h
Candida albicans = assay: Antifungal activity against Candida albicans ATCC 2091 after 48 hr by NCCLS two-fold serial dilution method; type: functional; settings: ATCC 2091, 48 h
Cryptococcus neoformans = assay: Antifungal activity against Cryptococcus neoformans clinical isolate after 48 hr by NCCLS two-fold serial dilution method; type: functional
Aspergillus flavus = assay: Antifungal activity against Aspergillus flavus NCIM 524 after 48 hr by NCCLS two-foldserial dilution method; type: functional; settings: NCIM 524, 48 h
HT-29 = assay: Cytotoxicity against Homo sapiens (human) HT-29 cells after 24 hr by MTT assay; type: functional, cell-based; settings: HT-29, 24 h
MCF7 = assay: Cytotoxicity against Homo sapiens (human) MCF7 cells after 24 hr by MTT assay; type: functional, cell-based; settings: MCF7, 24 h
Pseudomonas aeruginosa = assay: Antibacterial activity against Pseudomonas aeruginosa ATCC 25619 after 24 hr by NCCLS two-fold serial dilution method; type: functional; settings: ATCC 25619, 24 h

SMILES	IC50 (HeLa) [µM]	MIC (Staphylococcus aureus) [µg/mL]	IC50 (A549) [µM]	MIC (Aspergillus niger) [µg/mL]	MIC (Enterococcus faecalis) [µg/mL]	MIC (Escherichia coli) [µg/mL]	MIC (Candida albicans) [µg/mL]	MIC (Cryptococcus neoformans) [µg/mL]	MIC (Aspergillus flavus) [µg/mL]	IC50 (HT-29) [µM]	IC50 (MCF7) [µM]	MIC (Pseudomonas aeruginosa) [µg/mL]
O=C(CC1SC(=O)NC1=O)Nc1nnc(-c2ccccc2[N+](=O)[O-])s1 (centres undefined)	50	32 (≈ 84.3 µM)	72	16 (≈ 42.2 µM)	64 (≈ 169 µM)	64 (≈ 169 µM)	64 (≈ 169 µM)	64 (≈ 169 µM)	64 (≈ 169 µM)	68	78	64 (≈ 169 µM)
O=C(CC1SC(=O)NC1=O)Nc1nnc(-c2cccc([N+](=O)[O-])c2)s1 (centres undefined)	68	32 (≈ 84.3 µM)	78	64 (≈ 169 µM)	64 (≈ 169 µM)	64 (≈ 169 µM)	64 (≈ 169 µM)	64 (≈ 169 µM)	64 (≈ 169 µM)	72	67	32 (≈ 84.3 µM)
O=C(CC1SC(=O)NC1=O)Nc1nnc(-c2ccc([N+](=O)[O-])cc2)s1 (centres undefined)	50	32 (≈ 84.3 µM)	68	64 (≈ 169 µM)	32 (≈ 84.3 µM)	64 (≈ 169 µM)	64 (≈ 169 µM)	64 (≈ 169 µM)	32 (≈ 84.3 µM)	60	72	64 (≈ 169 µM)
O=C(CC1SC(=O)NC1=O)Nc1nnc(C(F)(F)F)s1 (centres undefined)	42	32 (≈ 98.1 µM)	60	16 (≈ 49 µM)	32 (≈ 98.1 µM)	32 (≈ 98.1 µM)	16 (≈ 49 µM)	16 (≈ 49 µM)	32 (≈ 98.1 µM)	50	62	32 (≈ 98.1 µM)
O=C(CC1SC(=O)NC1=O)Nc1nnc(-c2ccc(Cl)cc2)s1 (centres undefined)	62	4 (≈ 10.8 µM)	60	16 (≈ 43.4 µM)	32 (≈ 86.8 µM)	32 (≈ 86.8 µM)	16 (≈ 43.4 µM)	16 (≈ 43.4 µM)	16 (≈ 43.4 µM)	64	68	32 (≈ 86.8 µM)
O=C(CC1SC(=O)NC1=O)Nc1nnc(-c2ccc(Br)cc2)s1 (centres undefined)	52	8 (≈ 19.4 µM)	68	16 (≈ 38.7 µM)	32 (≈ 77.4 µM)	32 (≈ 77.4 µM)	16 (≈ 38.7 µM)	16 (≈ 38.7 µM)	16 (≈ 38.7 µM)	60	72	32 (≈ 77.4 µM)
O=C(CC1SC(=O)NC1=O)Nc1nnc(-c2ccc(F)cc2)s1 (centres undefined)	50	4 (≈ 11.4 µM)	50	4 (≈ 11.4 µM)	4 (≈ 11.4 µM)	8 (≈ 22.7 µM)	8 (≈ 22.7 µM)	8 (≈ 22.7 µM)	8 (≈ 22.7 µM)	42	60	8 (≈ 22.7 µM)
O=C(CC1SC(=O)NC1=O)Nc1nnc(-c2ccccc2Cl)s1 (centres undefined)	60	16 (≈ 43.4 µM)	62	16 (≈ 43.4 µM)	16 (≈ 43.4 µM)	32 (≈ 86.8 µM)	16 (≈ 43.4 µM)	16 (≈ 43.4 µM)	32 (≈ 86.8 µM)	66	84	32 (≈ 86.8 µM)
Cc1ccc(-c2nnc(NC(=O)CC3SC(=O)NC3=O)s2)cc1 (centres undefined)	50	8 (≈ 23 µM)	46	32 (≈ 91.8 µM)	4 (≈ 11.5 µM)	16 (≈ 45.9 µM)	16 (≈ 45.9 µM)	32 (≈ 91.8 µM)	32 (≈ 91.8 µM)	58	52	16 (≈ 45.9 µM)
COc1cccc(-c2nnc(NC(=O)CC3SC(=O)NC3=O)s2)c1 (centres undefined)	54	4 (≈ 11 µM)	60	32 (≈ 87.8 µM)	8 (≈ 22 µM)	16 (≈ 43.9 µM)	16 (≈ 43.9 µM)	16 (≈ 43.9 µM)	16 (≈ 43.9 µM)	56	58	32 (≈ 87.8 µM)
COc1ccc(-c2nnc(NC(=O)CC3SC(=O)NC3=O)s2)cc1 (centres undefined)	42	16 (≈ 43.9 µM)	45	16 (≈ 43.9 µM)	4 (≈ 11 µM)	32 (≈ 87.8 µM)	16 (≈ 43.9 µM)	16 (≈ 43.9 µM)	32 (≈ 87.8 µM)	44	42	16 (≈ 43.9 µM)
COc1ccc(-c2nnc(NC(=O)CC3SC(=O)NC3=O)s2)cc1OC (centres undefined)	40	16 (≈ 40.6 µM)	35	32 (≈ 81.1 µM)	32 (≈ 81.1 µM)	16 (≈ 40.6 µM)	16 (≈ 40.6 µM)	16 (≈ 40.6 µM)	16 (≈ 40.6 µM)	42	38	16 (≈ 40.6 µM)
COc1cc(-c2nnc(NC(=O)CC3SC(=O)NC3=O)s2)cc(OC)c1OC (centres undefined)	33	16 (≈ 37.7 µM)	30	16 (≈ 37.7 µM)	16 (≈ 37.7 µM)	16 (≈ 37.7 µM)	16 (≈ 37.7 µM)	32 (≈ 75.4 µM)	16 (≈ 37.7 µM)	35	36	16 (≈ 37.7 µM)
O=C(CC1SC(=O)NC1=O)Nc1nnc(-c2ccccc2)s1 (centres undefined)	62	32 (≈ 95.7 µM)	80	64 (≈ 191 µM)	64 (≈ 191 µM)	64 (≈ 191 µM)	64 (≈ 191 µM)	64 (≈ 191 µM)	64 (≈ 191 µM)	78	80	64 (≈ 191 µM)
CC1(C)S[C@@H]2[C@H](NC(=O)[C@H](N)c3ccccc3)C(=O)N2[C@H]1C(=O)O [AMPICILLIN]		2 (≈ 5.72 µM)			2 (≈ 5.72 µM)							
CC(=O)N1CCN(c2ccc(OCC3COC(Cn4ccnc4)(c4ccc(Cl)cc4Cl)O3)cc2)CC1 (centres undefined) [KETOCONAZOLE]				2 (≈ 3.76 µM)			2 (≈ 3.76 µM)	2 (≈ 3.76 µM)	1 (≈ 1.88 µM)			
